The record followed here is the SangsterLogP compilation.

What is called logP is the decadic logarithm of the partition coefficient of the neutral form, usually between octanol and water. Lower therefore signals a more hydrophilic compound. As for `CCCc1nnc(-c2ccc(N)cc2)o1`, the logP came out at 2.27. Under `Cc1nc(-c2ccc(N)cc2)no1` stands 1.71; under `Nc1ccc(-c2nnc(-c3ccccc3)o2)cc1`, 2.91; under `Nc1ccc(-c2nc(-c3ccccc3)no2)cc1`, 3.48. In turn, `CCc1nnc(-c2ccc(N)cc2)o1` registered a logP of 1.92. As to `Cc1noc(-c2ccc(N)cc2)n1`, the log partition coefficient (logP) was 1.89. For the compound `CCCCC(=O)c1ccc(N)cc1`, the logP was found to be 2.48.

In the case of `Cc1nnc(-c2ccc(N)cc2)o1`, the lipophilicity (logP) came out at 1.63.

The compound `Nc1ccc(-c2nnc(Cc3ccccc3)o2)cc1` gave a logP of 2.82. As to `CCCc1nnc(-c2ccc(N)cc2)s1`, the logP came to 2.53. Compound `Nc1ccc(-c2nc(Cc3ccccc3)no2)cc1` displayed a logP of 3.24. Under `CCc1nc(-c2ccc(N)cc2)no1` stands 2.13; under `CCCc1noc(-c2ccc(N)cc2)n1`, 2.61. Compound `CCCc1nc(-c2ccc(N)cc2)no1` displayed a lipophilicity (logP) of 2.54. `CCCCc1nnc(-c2ccc(N)cc2)o1` returned a log partition coefficient (logP) of 2.66. `CC(C)c1noc(-c2ccc(N)cc2)n1`: the logP was 2.57. Under `CC(C)(C)c1nnc(-c2ccc(N)cc2)o1` stands 2.53; under `CC(C)c1nnc(-c2ccc(N)cc2)o1`, 2.23; under `CCc1nsc(-c2ccc(N)cc2)n1`, 2.39. `CCc1noc(-c2ccc(N)cc2)n1`: the logP is 2.22. `CCC(=O)c1ccc(N)cc1` gave a log partition coefficient (logP) of 1.65.
